Entries after “also recorded” stand apart in the source; their conditions may differ.
Experiments:
carotid body [1] = experiment: en bloc perfused carotid body preparation: carotid sinus nerve response to LPA; set-up: species or system Sprague-Dawley rats; settings: for reduction of 5 μM LPA-mediated carotid sinus nerve excitation: 5 μM LPA (18:1), AMG9810 10 μM, BrP-LPA 1.5 μM, Ki16425 5 μM, mean±sem; for effect of LPAr blockade on carotid sinus nerve response to LPA (5 μM): BrP-LPA 1.5 μM or Ki16425 5 μM, FIGS. 2A-2B; for en bloc carotid body's response to LPA blocked: en bloc preparation
OVA-sensitized rats = experiment: bradykinin-induced bronchoconstriction (RL, Flexivent) in anesthetized ovalbumin-sensitized rats; assay type: in vivo, Brown Norway rats; settings: nebulized 0.4 mg bradykinin at 1, 10, 20 min, antagonists iv (BrP-LPA 3 mg/kg, Ki16425 5 mg/kg, AMG9810 10 μM/kg)
Description: In order to examine the involvement of LPA-induced carotid body activity on airway resistance in response to bradykinin nebulization, alfaxan-anesthetized animals and the Flexivent system were used. These experiments were performed with a number of acute interventions affecting the proposed pathway, including vagotomy, carotid body denervation, and TRPV1 and/or LPA receptor blockade. Prior to bradykinin, these interventions had no effect on airway resistance (Holm-S̆idák post hoc test comparing asthma control vs any manipulation group: p>0.06) and as expected, bradykinin had no effect on non-asthmatic lungs (p>0.3). However, the acute bronchoconstriction induced by bradykinin in asthmatic lungs was diminished by at least 60% with all interventions (FIG. 4B). The loss of bradykinin-induced bronchoconstriction also occurred in chronic carotid body denervated, but not sham rats (data not shown).
Brown Norway rats (80-120 g) were sensitized to ovalbumin (1 mg) with pertussis toxin (0.5 ng) and aluminum hydroxide as adjuvant (0.15 g) dissolved in saline (1 ml ip; OVA sensitized), or saline (1 ml ip; Naïve) for three consecutive days (Days 1, 2, and 3) and challenged with aerosolized 5% ovalbumin (OVA, dissolved in 0.9% saline) or saline (Naïve) on days 15, 18 and 21 for 10 min. All anaesthetized experiments conducted on OVA and Naïve rats were conducted ˜7 days (day 28) following the last aerosol exposure. […]
OVA Cohort 1 (n=26): To determine the effect of bradykinin and OVA-sensitization on airway resistance (RL) OVA-sensitization (day 28) and naïve rats were anesthetized with isoflurane (5%, balance O2) and instrumented for surgery. […] Data were analyzed with two-way repeated measures ANOVA (time×group). […] Airway mechanics were measured in response to bradykinin nebulizations (as in Cohort 1). Heart rate was attained from the blood pressure waveform, SaO2 was monitored from a pulse oximeter (Kent Scientific, Torrington Conn.) and blood gases were analyzed from 0.1 ml arterial samples drawn before and after bradykinin with a blood gas analyzer (Element POC, Heska Barrie, ON). […]

carotid body [2] = experiment: in situ dual-perfused preparation: phrenic and vagal nerve discharge after LPA to the carotid body circulation; set-up: species or system Sprague-Dawley rats; settings: carotid bodies intact
naïve Brown Norway rats = experiment: airway resistance after intravenous bolus in naïve anesthetized ventilated rats (Flexivent); assay type: in vivo; settings: naïve rats with intact CSN; 0.5 ml bolus, 5 μM LPA or 6 μM NaCN
glomus cells = experiment: Fura 2 calcium imaging of carotid body type I (glomus) cells; assay type: cell-based, Sprague-Dawley rats; settings: LPA 5 μM
Description: Sprague-Dawley rats (80-150 g, P21-28) were anaesthetised with isoflurane (3-5% in O2) and carotid bodies were harvested and digested in 0.4 mg ml^−1 collagenase type I (Worthington Biochemical Corporation, Lakewood, N.J.) and 0.2 mg ml^−1 trypsin type I (Sigma-Aldrich, St. Catherines, QC) in DPBS enzyme solution with low CaCl2) (86 μM) and MgCl2 (350 μM), for 20 min at 37° C. followed by dissociation with forceps and incubated for an additional 7 min. The tissue was centrifuged (115 g) for 3 min, supernatant removed and the pellet re-suspended in Ham's F12 (Sigma-Aldrich, St. Catherines, QC) supplemented with 10% heat inactivated fetal bovine serum (Biowest, San Marcos, Tex.). Cells were released by trituration with fire polished silanised Pasteur pipettes (Sigma-Aldrich, St. Catherines, QC). […]
Type I cells were loaded with 5 μM FURA-2AM (Invitrogen, Carlsbad Calif.) in serum free Ham's F12 nutrient media for 30 min at room temperature in humidified 5% CO2, 10% O2, before being transferred to FURA-2AM-free media in the same conditions for 20 min. […] The FURA-2 loaded cells were excited by 50 ms exposures to 340/380 nm light using a Lambda 10-3 filter wheel every 5 s and emitted light was recorded at 510 nm using a Coolsnap HQ2 CCD camera (Photometrics, Tucson Ariz.). […]

asthmatic rats = experiment: airway resistance after nebulized LPA in asthmatic rats (Cohort 5); assay type: in vivo, rat; settings: nebulized LPA 5 μM

| Compound | reduction of 5 μM LPA-mediated carotid sinus nerve excitation (carotid body [1]) [%] | effect of LPAr blockade on carotid sinus nerve response to LPA (5 μM) (carotid body [1]) | en bloc carotid body's response to LPA blocked (carotid body [1]) | effect on bradykinin-induced increase in RL compared to OVA (OVA-sensitized rats) | LPA response remaining after BrP-LPA or Ki16425 blockade, on subsequent application of AMG9810 (carotid body [1]; AMG9810 10 μM added after LPAr blockade (dual block), LPA 5 μM) | phrenic nerve burst amplitude (carotid body [2]; LPA 5 μM delivered to the CB circulation, baseline 1±0.5) [normalized units] | phrenic nerve burst rate (carotid body [2]; LPA 5 μM delivered to the CB circulation, baseline 1.2±0.8) [burst·min^−1] | phrenic and vagal nerve efferent discharge (carotid body [2]; bolus of 5 μM LPA) | airway resistance (naïve Brown Norway rats) | intracellular calcium in glomus cells (glomus cells) | immediate effect of nebulized LPA on airway resistance (asthmatic rats) | airway resistance after 30 min of nebulized LPA (asthmatic rats; abolished by carotid body denervation) |
| --- | --- | --- | --- | --- | --- | --- | --- | --- | --- | --- | --- | --- |
| CCCCCCCCCCCCCCCC(=O)OC[C@@H](O)CC(Br)P(=O)(O)O (stereo partly drawn) [BrP-LPA, [(3S)-1-bromo-4-hexadecanoyloxy-3-hydroxybutyl]phosphonic acid] | 70±3 | diminishes the response to LPA | Approximately 70% | abolished the effects of bradykinin | – | – | – | – | – | – | – | – |
| Cc1noc(-c2ccc(CSCCC(=O)O)cc2)c1NC(=O)OC(C)c1ccccc1Cl (stereo not drawn) [Ki16425, 3-(4-[4-([1-(2-chlorophenyl)ethoxy]carbonylamino)-3-methyl-5-isoxazolyl]benzylsulfanyl) propanoic acid] | 61±9 | diminishes the response to LPA | Approximately 70% | abolished the effects of bradykinin | – | – | – | – | – | – | – | – |
| CC(C)(C)c1ccc(/C=C/C(=O)Nc2ccc3c(c2)OCCO3)cc1 [AMG9810, (2E)-N-(2,3-Dihydro-1,4-benzodioxin-6-yl)-3-[4-(1,1-dimethylethyl)phenyl]-2-propenamide] | 41±6 | – | – | abolished the effects of bradykinin | blocks the LPA response; also recorded: almost abolished | – | – | – | – | – | – | – |
| Oleoyl-Lysophosphatidic acid [LPA] | – | – | – | – | – | 2.5±0.5 | 20.8±2.9 | increases | increased airway resistance | increased intracellular calcium release | no immediate effect | increase in airway resistance |
